The EC50 is the concentration giving half of the maximal effect. High values mean lower potency in that assay, low ones higher potency in that assay.

The target in the experiment is T1, human GPR40 (Homo sapiens, UniProt O14842).
T1 construct: expressed in transfected cells; host or cells: HEK cells stably expressing the aequorin reporter
T1 sequence (O14842 whole entry): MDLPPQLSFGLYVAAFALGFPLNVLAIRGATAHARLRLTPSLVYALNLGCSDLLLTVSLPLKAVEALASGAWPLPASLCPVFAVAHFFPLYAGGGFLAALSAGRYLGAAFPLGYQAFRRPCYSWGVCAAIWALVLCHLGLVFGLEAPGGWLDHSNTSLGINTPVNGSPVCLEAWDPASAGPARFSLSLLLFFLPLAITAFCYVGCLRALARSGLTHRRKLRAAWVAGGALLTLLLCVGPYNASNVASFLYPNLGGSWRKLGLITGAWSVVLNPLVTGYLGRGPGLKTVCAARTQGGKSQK
Description: Inositol Phosphate Turnover (IP1) Assay 3. Type of experiment: cell-based. The note with it: HEK cells stably expressing human GPR40. In outline: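 HEK cells stably expressing human GPR40, plated 16 h before, were treated with compound for 60 min at 37 °C in stimulation buffer. IP1 measured by HTRF (665/620 nm ratio) against an IP1 standard curve; activity normalized to a reference compound, EC50 from 4-parameter fit.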
`COc1cc(-c2cc(F)c(C3CCc4ccc([C@H](C5CC5)[C@H](C)C(=O)O)cc4O3)cc2CN(C(C)C)C(C)C)ccn1` (single isomer, unassigned) [Example 183] displayed an EC50 of 0.35 nM.

The compound `CCN(C)Cc1cc(C2CCc3ccc([C@H](C4CC4)[C@H](C)C(=O)O)cc3O2)ccc1-c1cc(OC)ncc1C#N` (single isomer, unassigned) [Example 196] returned an EC50 of 7.2 nM.

Compound `COc1cc(-c2ccc(C3CCc4ccc([C@H](C5CC5)[C@@H](C)C(=O)O)cc4O3)cc2CN(C(C)C)C(C)C)ccn1` (some centres unmarked) [Example 285] returned an EC50 of 4 nM.

`COc1cc(-c2ccc(C3CCc4ccc([C@H](C5CC5)[C@H](C)C(=O)O)cc4O3)cc2CN2CCCCC23CC3)ccn1` (single isomer, unassigned) [Example 222] registered an EC50 of 1.3 nM.

Take `COCC(c1cc([C@H]2CCc3ccc([C@H](C4CC4)[C@H](C)C(=O)O)cc3O2)ccc1-c1ccnc(OC)c1)N1CCCC1` (mixture of isomers) [Example 179, (2S, 3R)-3-cyclopropyl-3-((2R)-2-(3-(2-methoxy-1-(pyrrolidin-1-yl)ethyl)-4-(2-methoxypyridin-4-yl)phenyl)chroman-7-yl)-2-methylpropanoic acid]: a half-maximal response (EC50) required 17 nM.

`CCC1CCCCN1Cc1cc(C2CCc3ccc([C@H](C4CC4)[C@H](C)C(=O)O)cc3O2)ccc1-c1cc(OC)ncc1F` (single isomer, unassigned) [Example 273b] displayed a concentration giving a half-maximal response (EC50) of 0.3 nM.

The compound `COc1cc(-c2ccc(C3CCc4ccc([C@H](C5CC5)[C@H](C)C(=O)O)cc4O3)c(CN3CCCC3(C)C)c2)ccn1` (mixture of isomers) [Example 111, (2S,3R)-3-cyclopropyl-3-(2-(2-((2,2-dimethylpyrrolidin-1-yl)methyl)-4-(2-methoxypyridin-4-yl)phenyl)chroman-7-yl)-2-methylpropanoic acid] displayed an EC50 of 0.7 nM. This EC50 is about 2.3-fold higher than that of the compound before.

`COc1ccc(F)c(-c2ccc(C3CCc4ccc([C@H](C5CC5)[C@H](C)C(=O)O)cc4O3)cc2CN2CCCCC23CC3)n1` (single isomer, unassigned) [Example 189] yielded an EC50 of 5.1 nM.

The compound `COc1cc(-c2ccc(C3CCc4ccc([C@H](C5CCC5)[C@H](C)C(=O)O)cc4O3)cc2CN2CCCC2(C)C)c(F)cn1` (single isomer, unassigned) [Example 108] returned an EC50 of 0.1 nM.

`COc1cc(-c2ccc(C3CCc4ccc([C@H](C5CC5)[C@H](C)C(=O)O)cc4O3)c(CN(C)C(C)(C)C)c2)ccn1` (mixture of isomers) [Example 114] displayed an EC50 of 5 nM.

Turning to `COc1cc(-c2ccc(C3CCc4ccc([C@H](C5CC5)[C@H](C)C(=O)O)cc4O3)cc2CN2[C@H](C)CCC[C@H]2C)ccn1` (some centres unmarked) [Example 240], the EC50 amounted to 1.4 nM.

Regarding `COc1cc(-c2ccc(C3CCc4ccc([C@H](C5CC5)[C@H](C)C(=O)O)cc4O3)c(CN3CCC[C@H]3C)c2)ccn1` (single isomer, unassigned) [Example 119a], it took 308 nM to reach a half-maximal effect (EC50).

As for `COc1cc(-c2ccc(C3CCc4ccc([C@H](C5CC5)[C@H](C)C(=O)O)cc4O3)c(CN3[C@H](C)CC[C@H]3C)c2)c(F)cn1` (some centres unmarked) [Example 127], the midpoint of the response, the EC50, lay at 0.2 nM.

Consider `CCN(Cc1cc(-c2ccnc(OC)c2)ccc1C1CCc2ccc([C@H](C3CC3)[C@H](C)C(=O)O)cc2O1)C(C)C` (single isomer, unassigned) [Example 113a], for which the half-maximal effective concentration (EC50) was found to be 0.4 nM. This EC50 is about 2-fold higher than that of the compound before.

`CCN(C)Cc1cc(C2CCc3ccc([C@H](C4CC4)[C@H](C)C(=O)O)cc3O2)ccc1-c1cc(OC)ncc1F` (some centres unmarked) [Example 253] came in with an EC50 of 0.9 nM.

In the case of `COc1cc(-c2ccc(C3CCc4ccc([C@H](C5CC5)[C@H](C)C(=O)O)cc4O3)cc2CN2CCC(C#N)CC2)c(F)cn1` (some centres unmarked) [Example 271], a half-maximal response (EC50) required 2.6 nM.

Regarding `CCN(CC)Cc1cc(C2CCc3ccc([C@H](C4CC4)[C@H](C)C(=O)O)c(F)c3O2)ccc1-c1cc(OC)ncc1F` (single isomer, unassigned) [Example 204], a half-maximal effect (EC50) was put at 2.1 nM. This EC50 and that of the compound before are within 1.5-fold of each other.

`COc1cc(-c2ccc(C3CCc4ccc([C@H](C5CC5)[C@H](C)C(=O)O)c(F)c4O3)cc2CN2CCC[C@H]2C)c(F)cn1` (single isomer, unassigned) [Example 210] yielded an EC50 of 3.1 nM.

Turning to `CCOc1cc(-c2ccc(C3CCc4ccc([C@H](C5CC5)[C@H](C)C(=O)O)cc4O3)cc2CN2CCCC2)c(Cl)cn1` (single isomer, unassigned) [Example 217], the EC50 worked out at 57 nM. This EC50 lies about 18-fold higher than the previous one.

`CCN(Cc1cc(-c2cc(OC)ncc2F)ccc1C1CCc2ccc([C@H](C3CC3)[C@H](C)C(=O)O)cc2O1)C(C)C` (single isomer, unassigned) [Example 124b] registered an EC50 of 16 nM.

With `CCN(CC)Cc1nc(C2CCc3ccc([C@H](C4CC4)[C@H](C)C(=O)O)cc3O2)ccc1-c1cc(OC)ncc1F` (single isomer, unassigned) [Example 89], the response was half-maximal at 0.9 nM (EC50).

Compound `CCN(CC)Cc1cc(C2CCc3ccc([C@H](C4CCC4)[C@H](C)C(=O)O)cc3O2)ccc1-c1cc(OC)ncc1F` (single isomer, unassigned) [Example 99] returned an EC50 of 0.18 nM.

On to `COc1cc(-c2ccc(C3CCc4ccc([C@H](C5CC5)[C@H](C)C(=O)O)cc4O3)cc2CN2[C@H](C)CCC[C@H]2C)c(F)cn1` (some centres unmarked) [Example 257], for which it took 0.4 nM to reach a half-maximal effect (EC50). This EC50 lies about 2.2-fold higher than the previous one.

`COc1cc(-c2ccc(C3CCc4ccc([C@H](C5CC5)[C@H](C)C(=O)O)cc4O3)cc2CN(C)C(C)(C)C)c(C#N)cn1` (single isomer, unassigned) [Example 193] came in with an EC50 of 1.5 nM.

As for `COc1cc(-c2ccc(C3CCc4ccc([C@H](C5CC5)[C@H](C)C(=O)O)cc4O3)cc2CN2CCCC2)ccn1` (stereo partly drawn) [Example 175, (2S, 3R)-3-cyclopropyl-3-(2-(4-(2-methoxypyridin-4-yl)-3-(pyrrolidin-1-ylmethyl)phenyl)-chroman-7-yl)-2-methylpropanoic acid], a half-maximal effect (EC50) was put at 53 nM. Compared with the last compound, the EC50 is about 35-fold higher.

Regarding `COc1cc(-c2ccc(C3CCc4ccc([C@H](C5CC5)[C@H](C)C(=O)O)cc4O3)cc2CN2[C@@H](C)CCC[C@@H]2C)ccn1` (some centres unmarked) [Example 241], the EC50 stood at 1.1 nM.

Turning to `COc1cc(-c2ccc(C3CCc4ccc([C@H](C5CC5)[C@H](C)C(=O)O)cc4O3)c(CN3CCCCC3(C)C)c2)c(F)cn1` (single isomer, unassigned) [Example 128b], the EC50 turned out to be 1.2 nM.

`COc1cc(-c2ccc(C3CCc4ccc([C@H](C5CC5)[C@H](C)C(=O)O)cc4O3)c(CN3CCCC3)c2)c(F)cn1` (single isomer, unassigned) [Example 123a] yielded an EC50 of 91 nM.

The compound `COc1cc(-c2ccc(C3CCc4ccc([C@H](C5CC5)[C@H](C)C(=O)O)cc4O3)c(CN3CCCC[C@H]3C)c2)ccn1` (single isomer, unassigned) [Example 120b] came in with an EC50 of 41 nM. Against the preceding compound, the EC50 is about 2.2-fold lower.

`COc1ccc(F)c(-c2ccc(C3CCc4ccc([C@H](C5CC5)[C@H](C)C(=O)O)cc4O3)cc2CN2CCCCC23CC3)n1` (some centres unmarked) [compound 190] displayed an EC50 of 3.9 nM.

`CCN(C)Cc1cc(C2CCc3ccc([C@H](C4CC4)[C@H](C)C(=O)O)cc3O2)ccc1-c1cc(OC)ncc1C#N` (single isomer, unassigned) [Example 195] registered an EC50 of 12 nM. Compared with the last compound, the EC50 is about 3.1-fold higher.

As for `COc1cc(-c2ccc(C3CCc4ccc([C@H](C5CC5)[C@H](C)C(=O)O)c(F)c4O3)cc2CN2CCC[C@@H]2C)c(F)cn1` (single isomer, unassigned) [Example 213], the EC50 was 1.4 nM.

For the compound `COc1cc(-c2ccc(C3CCc4ccc([C@H](C5CC5)[C@H](C)C(=O)O)cc4O3)c(CN3CCCCC3(C)C)c2)ccn1` (single isomer, unassigned) [Example 117b], it took 24 nM to reach a half-maximal effect (EC50).

On to `COc1cc(-c2ccc(C3CCc4ccc([C@H](C5CC5)[C@H](C)C(=O)O)cc4O3)c(CN3[C@H](C)CC[C@H]3C)c2)ccn1` (single isomer, unassigned) [Example 116c], for which it took 1000 nM to reach a half-maximal effect (EC50).

On to `COc1cc(-c2ccc(C3CCc4ccc([C@H](C5CC5)[C@H](C)C(=O)O)cc4O3)cc2CN2CCCC3(CC3)C2)c(F)cn1` (some centres unmarked) [Example 260], for which a half-maximal response (EC50) required 0.9 nM.

In turn, `COc1cc(-c2ccc(C3CCc4ccc([C@H](C5CC5)[C@H](C)C(=O)O)cc4O3)cc2CN2C3CCCC2CC3)ccn1` (some centres unmarked) [Example 290] showed an EC50 of 22 nM. This EC50 is about 24-fold higher than that of the compound before.

On to `COc1cc(-c2ccc(C3CCc4ccc([C@H](C5CC5)[C@H](C)C(=O)O)c(F)c4O3)cc2CN2[C@H](C)CC[C@H]2C)c(F)cn1` (single isomer, unassigned) [Example 209], for which the EC50 came out at 0.5 nM.

For `COc1cc(-c2ccc([C@@H]3CCc4ccc([C@H](C5CC5)[C@H](C)C(=O)O)cc4O3)cc2CN2CC3CC3C2)c(F)cn1` (stereo partly drawn) [Example 250, Sodium (2S,3R)-3-((2S)-2-(3-((3-azabicyclo[3.1.0]hexan-3-yl)methyl)-4-(5-fluoro-2-methoxypyridin-4-yl)phenyl)chroman-7-yl)-3-cyclopropyl-2-methylpropanoate], the 50% effective concentration (EC50) is 0.19 nM.

The compound `COc1cc(-c2cc(F)c(C3CCc4ccc([C@H](C5CC5)[C@H](C)C(=O)O)cc4O3)cc2CN2CCCCC23CC3)ccn1` (single isomer, unassigned) [Example 187] registered an EC50 of 0.4 nM.

As to `COc1cc(-c2ccc(C3CCc4ccc([C@H](C5CC5)[C@H](C)C(=O)O)cc4O3)cc2CN2CCC(C)(C)C2)c(F)cn1` (some centres unmarked) [Example 266], the midpoint of the response, the EC50, lay at 0.1 nM.

The compound `CCN(Cc1cc(C2CCc3ccc([C@H](C4CC4)[C@H](C)C(=O)O)cc3O2)ccc1-c1ccnc(OC)c1)C(C)C` (some centres unmarked) [Example 287] registered a concentration for a half-maximal effect (EC50) of 3.3 nM. This EC50 lies about 33-fold higher than the previous one.

Regarding `COc1cc(-c2ccc(C3CCc4ccc([C@H](C5CC5)[C@H](C)C(=O)O)cc4O3)c(CN3CCCC3)c2)ccn1` (single isomer, unassigned) [Example 112a], the EC50 turned out to be 2.3 nM.

On to `COc1cc(-c2ccc(C3CCc4ccc([C@H](C5CCC5)[C@H](C)C(=O)O)cc4O3)cc2CN2CCCC2C)c(F)cn1` (some centres unmarked) [Example 103], for which the EC50 turned out to be 0.09 nM.

On to `COc1cc(-c2ccc(C3CCc4ccc([C@H](C5CC5)[C@@H](C)C(=O)O)cc4O3)cc2CN(C)C(C)(C)C)c(F)cn1` (some centres unmarked) [Example 227], for which the concentration for a half-maximal effect (EC50) was determined as 14 nM. Against the preceding compound, the EC50 is about 160-fold higher.

The values are drawn from US10968193B2, “Antidiabetic bicyclic compounds” (Merck Sharp & Dohme Corp., priority 2014, dated 2021).
